Here are results for eight compounds from US20260022142A1, “MACROCYCLIC IMMUNOMODULATORS” (Bristol-Myers Squibb Company, priority 2022, published 2026).

Structures are written as SMILES. Numbered stars: 1 amine (or outer) side, 2 acyl side, 3 side chain; on linkers, the order of the positions; unused ones are H or OH. Bridge positions count the residues as written; N and C are the ends. Square brackets hold non-standard residues; d marks the D form. Peptide text beside a SMILES is read from it. * marks the point of attachment. Bip = N[C@@H](Cc1ccc(-c2ccccc2)cc1)C(=O)O; Phe(3-Me) = Cc1cccc(C[C@H](N)C(=O)O)c1; γGlu = O=C(O)[C@H](CCC(=O)[*:2])N[*:1]; βAsp = O=C(O)[C@H](CC(=O)[*:2])N[*:1]; Cha = N[C@@H](CC1CCCCC1)C(=O)O; Cit = NC(=O)NCCC[C@H](N)C(=O)O; Carboxymethyl = O=C(O)C*; Orn = NCCC[C@H](N)C(=O)O; Aun = NCCCCCCCCCCC(=O)O; Dab = NCC[C@H](N)C(=O)O; Dap = NC[C@H](N)C(=O)O; AEEA = NCCOCCOCC(=O)O

In the test the target is T1, PD-1/PD-L1 interaction (PE-labeled human PD-L1-Ig binding to Jurkat cell line over-expressing human PD-1) (Homo sapiens, UniProt Q15116).
T1 construct: expressed in transfected cells; host or cells: Jurkat
T1 sequence (Q15116 25-288): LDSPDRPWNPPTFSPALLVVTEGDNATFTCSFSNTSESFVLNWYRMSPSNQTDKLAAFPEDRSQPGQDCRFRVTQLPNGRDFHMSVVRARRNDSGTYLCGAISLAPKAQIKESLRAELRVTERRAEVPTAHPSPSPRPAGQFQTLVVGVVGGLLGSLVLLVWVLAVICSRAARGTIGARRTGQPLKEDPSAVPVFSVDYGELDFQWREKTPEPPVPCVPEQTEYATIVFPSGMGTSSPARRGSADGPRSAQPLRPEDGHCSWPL
The experiment in a line: Jurkat-PD-1 Cell Binding High-Content Screening Assay (CBA). Format: cell-based. As to conditions: Jurkat cell line over-expressing human PD-1; PE-labeled PD-L1-Ig 20 nM final; read-out: Jurkat hPD1-PDL1 IC50. As for the experimental part:
Example 2: Jurkat-PD-1 Cell Binding High-Content Screening Assay (CBA)
Phycoerythrin (PE) was covalently linked to the Ig epitope tag of human PD-L1-Ig and fluorescently-labeled PD-L1-Ig was used for binding studies with a Jurkat cell line over-expressing human PD-1 (Jurkat-PD-1). Briefly, 8×10^3 Jurkat-hPD-1 cells were seeded into 384 well plates in 20 μl of DMEM supplemented with 10% fetal calf serum. 100 nl of compound was added to cells followed by incubation at 37° C. for 2 h. Then, 5 μl of PE-labeled PD-L1-Ig (20 nM final), diluted in DMEM supplemented with 10% fetal calf serum. After 1 hour incubation, cells were fixed with 4% paraformaldehyde in dPBS containing 10 μg/ml Hoechst 33342 and then washed 3× in 100 μl dPBS. Data was collected and processed using a Cell Insight NXT High Content Imager and associated software.
Broadly, the IC50 is the concentration at which inhibition is half-maximal. For `Cc1cccc(C[C@@H]2NC(=O)[C@H](CC(=O)O)NC(=O)[C@H](Cc3ccc(OCC(=O)O)cc3)NC(=O)[C@H](CN)NC(=O)CSC[C@@H](C(=O)N[C@@H](C)C(=O)N[C@@H](CC(=O)NCC(=O)NCCCCCCCCCCC(=O)O)C(=O)O)NC(=O)[C@H]([C@@H](C)O)NC(=O)[C@H](C(C)C)NC(=O)[C@H](CC3CCCCC3)NC(=O)[C@H](CCN)NC(=O)[C@@H](CC(C)C)NC(=O)[C@H](CCCN)NC(=O)[C@H](CCCNC(N)=O)NC(=O)[C@H](Cc3ccc(-c4ccccc4)cc3)NC(=O)[C@H](C(C)C)NC2=O)c1` [Compound 1012] ({CH2CO}-[Dap]Y(Carboxymethyl)D[Phe(3-Me)]V[Bip][Cit][Orn][dL][Dab][Cha]VTCA[βAsp]G[Aun]-OH; thioether N-14), the IC50 was 5 nM.
For `Cc1cccc(C[C@@H]2NC(=O)[C@H](CC(=O)O)NC(=O)[C@H](Cc3ccc(OCC(=O)O)cc3)NC(=O)[C@H](CN)NC(=O)CSC[C@@H](C(=O)N[C@@H](C)C(=O)N[C@@H](CC(=O)O)C(=O)NCCOCCOCC(=O)N[C@@H](CC(=O)O)C(=O)NCCOCCOCC(=O)NCCCCCCCCCCC(=O)O)NC(=O)[C@H]([C@@H](C)O)NC(=O)[C@H](C(C)C)NC(=O)[C@H](CC3CCCCC3)NC(=O)[C@H](CCN)NC(=O)[C@@H](CC(C)C)NC(=O)[C@H](CCCN)NC(=O)[C@H](CCCNC(N)=O)NC(=O)[C@H](Cc3ccc(-c4ccccc4)cc3)NC(=O)[C@H](C(C)C)NC2=O)c1` [Compound 1013] ({CH2CO}-[Dap]Y(Carboxymethyl)D[Phe(3-Me)]V[Bip][Cit][Orn][dL][Dab][Cha]VTCAD[AEEA]D[AEEA][Aun]-OH; thioether N-14), the IC50 is 11.9 nM.
Regarding `Cc1cccc(C[C@@H]2NC(=O)[C@H](CC(=O)O)NC(=O)[C@H](Cc3ccc(OCC(=O)O)cc3)NC(=O)[C@H](CN)NC(=O)CSC[C@@H](C(=O)N[C@@H](C)C(=O)N[C@@H](CC(=O)O)C(=O)NCCOCCOCC(=O)N[C@@H](CCC(=O)NCCOCCOCC(=O)NCCCCCCCCCCC(=O)O)C(=O)O)NC(=O)[C@H]([C@@H](C)O)NC(=O)[C@H](C(C)C)NC(=O)[C@H](CC3CCCCC3)NC(=O)[C@H](CCN)NC(=O)[C@@H](CC(C)C)NC(=O)[C@H](CCCN)NC(=O)[C@H](CCCNC(N)=O)NC(=O)[C@H](Cc3ccc(-c4ccccc4)cc3)NC(=O)[C@H](C(C)C)NC2=O)c1` [Compound 1014] ({CH2CO}-[Dap]Y(Carboxymethyl)D[Phe(3-Me)]V[Bip][Cit][Orn][dL][Dab][Cha]VTCAD[AEEA][γGlu][AEEA][Aun]-OH; thioether N-14), the IC50 came out at 5.5 nM.
`Cc1cccc(C[C@@H]2NC(=O)[C@H](CC(=O)O)NC(=O)[C@H](Cc3ccc(OCC(=O)O)cc3)NC(=O)[C@H](CN)NC(=O)CSC[C@@H](C(=O)N[C@@H](C)C(=O)N[C@@H](CCC(=O)O)C(=O)NCCOCCOCC(=O)N[C@@H](CCC(=O)NCCOCCOCC(=O)NCCCCCCCCCCC(=O)O)C(=O)O)NC(=O)[C@H]([C@@H](C)O)NC(=O)[C@H](C(C)C)NC(=O)[C@H](CC3CCCCC3)NC(=O)[C@H](CCN)NC(=O)[C@@H](CC(C)C)NC(=O)[C@H](CCCN)NC(=O)[C@H](CCCNC(N)=O)NC(=O)[C@H](Cc3ccc(-c4ccccc4)cc3)NC(=O)[C@H](C(C)C)NC2=O)c1` [Compound 1015] ({CH2CO}-[Dap]Y(Carboxymethyl)D[Phe(3-Me)]V[Bip][Cit][Orn][dL][Dab][Cha]VTCAE[AEEA][γGlu][AEEA][Aun]-OH; thioether N-14): the IC50 was determined as 7.9 nM.
On to `Cc1cccc(C[C@@H]2NC(=O)[C@H](CC(=O)O)NC(=O)[C@H](Cc3ccc(OCC(=O)O)cc3)NC(=O)[C@H](CN)NC(=O)CSC[C@@H](C(=O)N[C@@H](C)C(=O)N[C@@H](CC(=O)O)C(=O)NCCOCCOCC(=O)N[C@@H](CCC(=O)O)C(=O)NCCOCCOCC(=O)NCCCCCCCCCCC(=O)O)NC(=O)[C@H]([C@@H](C)O)NC(=O)[C@H](C(C)C)NC(=O)[C@H](CC3CCCCC3)NC(=O)[C@H](CCN)NC(=O)[C@@H](CC(C)C)NC(=O)[C@H](CCCN)NC(=O)[C@H](CCCNC(N)=O)NC(=O)[C@H](Cc3ccc(-c4ccccc4)cc3)NC(=O)[C@H](C(C)C)NC2=O)c1` [Compound 1016] ({CH2CO}-[Dap]Y(Carboxymethyl)D[Phe(3-Me)]V[Bip][Cit][Orn][dL][Dab][Cha]VTCAD[AEEA]E[AEEA][Aun]-OH; thioether N-14), for which the IC50 worked out at 6 nM.
For `Cc1cccc(C[C@@H]2NC(=O)[C@H](CC(=O)O)NC(=O)[C@H](Cc3ccc(OCC(=O)O)cc3)NC(=O)[C@H](CN)NC(=O)CSC[C@@H](C(=O)N[C@@H](C)C(=O)N[C@@H](CC(=O)NCCOCCOCC(=O)N[C@@H](CCC(=O)NCCOCCOCC(=O)NCCCCCCCCCCC(=O)O)C(=O)O)C(=O)O)NC(=O)[C@H]([C@@H](C)O)NC(=O)[C@H](C(C)C)NC(=O)[C@H](CC3CCCCC3)NC(=O)[C@H](CCN)NC(=O)[C@@H](CC(C)C)NC(=O)[C@H](CCCN)NC(=O)[C@H](CCCNC(N)=O)NC(=O)[C@H](Cc3ccc(-c4ccccc4)cc3)NC(=O)[C@H](C(C)C)NC2=O)c1` [Compound 1018] ({CH2CO}-[Dap]Y(Carboxymethyl)D[Phe(3-Me)]V[Bip][Cit][Orn][dL][Dab][Cha]VTCA[βAsp][AEEA][γGlu][AEEA][Aun]-OH; thioether N-14), the IC50 was 8.4 nM.
Take `Cc1cccc(C[C@@H]2NC(=O)[C@H](CC(=O)O)NC(=O)[C@H](Cc3ccc(OCC(=O)O)cc3)NC(=O)[C@H](CN)NC(=O)CSC[C@@H](C(=O)N[C@@H](C)C(=O)N[C@@H](CC(=O)NCCOCCOCC(=O)N[C@@H](CC(=O)O)C(=O)NCCOCCOCC(=O)NCCCCCCCCCCC(=O)O)C(=O)O)NC(=O)[C@H]([C@@H](C)O)NC(=O)[C@H](C(C)C)NC(=O)[C@H](CC3CCCCC3)NC(=O)[C@H](CCN)NC(=O)[C@@H](CC(C)C)NC(=O)[C@H](CCCN)NC(=O)[C@H](CCCNC(N)=O)NC(=O)[C@H](Cc3ccc(-c4ccccc4)cc3)NC(=O)[C@H](C(C)C)NC2=O)c1` [Compound 1019] ({CH2CO}-[Dap]Y(Carboxymethyl)D[Phe(3-Me)]V[Bip][Cit][Orn][dL][Dab][Cha]VTCA[βAsp][AEEA]D[AEEA][Aun]-OH; thioether N-14): the IC50 was 6.8 nM.
For the compound `Cc1cccc(C[C@@H]2NC(=O)[C@H](CC(=O)O)NC(=O)[C@H](Cc3ccc(OCC(=O)O)cc3)NC(=O)[C@H](CN)NC(=O)CSC[C@@H](C(=O)N[C@@H](C)C(=O)N[C@@H](CC(=O)NCCOCCOCC(=O)N[C@@H](CCC(=O)O)C(=O)NCCOCCOCC(=O)NCCCCCCCCCCC(=O)O)C(=O)O)NC(=O)[C@H]([C@@H](C)O)NC(=O)[C@H](C(C)C)NC(=O)[C@H](CC3CCCCC3)NC(=O)[C@H](CCN)NC(=O)[C@@H](CC(C)C)NC(=O)[C@H](CCCN)NC(=O)[C@H](CCCNC(N)=O)NC(=O)[C@H](Cc3ccc(-c4ccccc4)cc3)NC(=O)[C@H](C(C)C)NC2=O)c1` [Compound 1020] ({CH2CO}-[Dap]Y(Carboxymethyl)D[Phe(3-Me)]V[Bip][Cit][Orn][dL][Dab][Cha]VTCA[βAsp][AEEA]E[AEEA][Aun]-OH; thioether N-14), the IC50 worked out at 8.3 nM.
